In patent US20230051797A1, “METHOD FOR RECOVERING EXTRACELLULAR VESICLE AND BLOOD COLLECTION VESSEL” (FUJIREBIO INC., priority 2019, published 2023):
Read-outs that look alike come from different tables or passages of the source.

Legend:
human whole blood = assay: Confirmation of presence and absence of hemolysis in whole blood with surfactant (Example 2)
Procedure: A surfactant was added to human whole blood for confirmation of presence and absence of hemolysis. […] Octyltrimethylammonium bromide (C8TAB) and hexadecyltrimethylammonium chloride (C16TAC) were used as cationic surfactants. N-decanoyl sarcosine sodium (N-DSS (NDS)) and N-lauroyl sarcosine sodium hydrate (NLS) were used as anionic surfactants. As amphoteric surfactants, CHAPS and N-dodecyl-N,N-dimethyl-3-ammonio-l-propanesulfonate (C12APS) were used.
More specifically, 900 μL of whole blood obtained after blood collection was added to the 5 mL polypropylene test tube (manufactured by nunc) containing 100 μL of D-PBS (-) supplemented with the surfactant. The surfactant was added to achieve a final concentration of 0.5 W/V % after mixed with whole blood. After the addition of whole blood, the test tubes were inverted for mixing, and allowed to stand at room temperature for 30 minutes. After centrifugation (3000 rpm, 5 minutes), the supernatant was collected for visual check of the presence and absence of hemolysis.

[1] = system: CD9, the surface marker protein of the extracellular vesicle (EV); assay: Recovery of EV from whole blood with chelating agent (CD9 measured in supernatant, Example 1); design: species or system human; settings: chelating agent final concentration 15 mM in whole blood
Procedure: The chelating agent was added to human whole blood. After centrifugation, CD9 in the supernatant was measured. […]

[2] = system: CD9, the surface marker protein of extracellular vesicle (EV); assay: Study of action of chelating agent and surfactant on whole blood or on immune reaction (CD9, Example 5); design: species or system human; settings: for vs. no EGTA (%): 100 mM EGTA in particle solution vs none
Procedure: (§1) To 0.01 g/mL of magnetic particles in 10 mM MES buffer (pH 5.0), 0.2 mg/mL of a mouse anti-CD9 monoclonal antibody (Fujirebio Inc.) that recognizes an extracellular vesicle (EV) surface marker CD9, was added. Then, the resulting solution was gently stirred at 25° C. for one hour for incubation. After the reaction, the magnetic particles were magnetically collected and washed with a washing solution (50 mM Tris buffer, 150 mM NaCl2, 2.0% BSA, pH 7.2) in order to obtain anti-CD9 antibody solid-phased particles. Each antibody solid-phased particle was suspended in a particle diluent (50 mM Tris buffer, 1 mM EDTA-2Na, 0.1% NaN3, 2.0% BSA, pH 7.2) in order to obtain each antibody solid-phased particle solution.
(§2) Desalted alkaline phosphatase (ALP) was mixed with N-(4-maleimidobutyryloxy)-succinimide (GMBS) (final concentration 0.3 mg/mL) and the resulting solution was allowed to stand at 30° C. for one hour for maleimidation of ALP. Next, in a coupling reactant solution (100 mM phosphate buffer, 1 mM EDTA-2Na, pH 6.3), Fab's of mouse anti-CD9 monoclonal antibody was mixed with maleimidized ALP at a molar ratio of 1: 1, and reacted at 25° C. for one hour. The reactant solution was subjected to purification using Superdex 200 column chromatography (General Electric Company) to obtain ALP-labeled anti-CD9 antibody. Each ALP-labeled antibody was suspended in a labeled antibody diluent (50 mM MES buffer, 150 mM NaCl2, 0.3 mM ZnCl2, 1 mM MgCl2, 0.1% NaN3, 2.0% BSA, pH 6.8) to obtain each labeled antibody solution.
20 μL of the sample for measurement and 50 μL of the anti-CD9 antibody solid-phased particle solution were dispensed into the reaction vessel and stirred. Then, the resulting solution was incubated at 37° C. for 8 minutes (primary reaction), and B/F separation and washing were carried out. 50 μL of the ALP-labeled antibody was dispensed into the reaction vessel, the resulting solution was stirred and then incubated at 37° C. for 8 minutes, and B/F separation and washing were carried out. Then, 200 μL of Lumipulse (registered trademark) substrate solution (Fujirebio Inc.) containing 3-(2′-spiroadamantane)-4-methoxy-4-(3″-phosphoryloxy)phenyl-1,2-dioxetane disodium salt (AMPPD) serving as a chemiluminescent substance was dispensed into the reaction chamber. The resulting solution was stirred and then incubated at 37° C. for 4 minutes for the measurement of luminescence intensity using luminometer. A count value was obtained as the measured value. The luminescence intensity was measured using a fully automated chemiluminescent enzyme immunoassay system (Lumipulse L2400 (Fujirebio Inc.)). […]
In addition, CD9 was measured also for a solution obtained by adding 100 mM EGTA to the CD9 antibody solid-phased particle solution. […]

[3] = system: CD9, the surface marker protein of extracellular vesicle (EV); assay: Recovery of EV from whole blood supplemented with chelating agent and surfactant (CD9 in supernatant, Example 3); design: species or system human; settings: chelating agent 60 mM
Procedure: To 0.01 g/mL of magnetic particles in 10 mM MES buffer (pH 5.0), 0.2 mg/mL of a mouse anti-CD9 monoclonal antibody (Fujirebio Inc.) that recognizes an extracellular vesicle (EV) surface marker CD9, was added. Then, the resulting solution was gently stirred at 25° C. for one hour for incubation. After the reaction, the magnetic particles were magnetically collected and washed with a washing solution (50 mM Tris buffer, 150 mM NaCl2, 2.0% BSA, pH 7.2) in order to obtain anti-CD9 antibody solid-phased particles. Each antibody solid-phased particle was suspended in a particle diluent (50 mM Tris buffer, 1 mM EDTA-2Na, 0.1% NaN3, 2.0% BSA, pH 7.2) in order to obtain each antibody solid-phased particle solution. […]
The chelating agent and the surfactant were added to human whole blood. CD9 was measured in the supernatant after centrifugation. […]

[4] = system: CD9, the surface marker protein of extracellular vesicle (EV); assay: Study of concentrations of chelating agent and surfactant (CD9 in supernatant, Example 4); design: species or system human; settings: Tergitol 15-S-40 0%
Procedure: as §1, §2
20 μL of the sample for measurement and 50 μL of the anti-CD9 antibody solid-phased particle solution were dispensed into the reaction vessel and stirred. Then, the resulting solution was incubated at 37° C. for 8 minutes (primary reaction), and B/F separation and washing were carried out. 50 μL of the ALP-labeled antibody was dispensed into the reaction vessel, the resulting solution was stirred and then incubated at 37° C. for 8 minutes, and B/F separation and washing were carried out. Then, 200 μL of Lumipulse (registered trademark) substrate solution (Fujirebio Inc.) containing 3-(2′-spiroadamantane)-4-methoxy-4-(3″-phosphoryloxy)phenyl-1,2-dioxetane disodium salt (AMPPD) serving as a chemiluminescent substance was dispensed into the reaction chamber. The resulting solution was stirred and then incubated at 37° C. for 4 minutes for the measurement of luminescence intensity using luminometer. A count value was obtained as the measured value. The luminescence intensity was measured using a fully automated chemiluminescent enzyme immunoassay system (Lumipulse L2400 (Fujirebio Inc.)).
Antibodies recognizing the same epitope in CD9 were used as the antibody solid-phased on the magnetic particle and the ALP-labeled antibody. Due to the presence of a plurality of CD9 on a single extracellular vesicle, it is possible to measure for the extracellular vesicle presenting a plurality of CD9 to be indicated as the surface marker rather than free CD9 by means of the sandwich immunoassay in which the antibodies recognizing the same epitope as the solid-phased antibodies were used as the ALP-labeled antibodies.
Various concentrations of the chelating agent and the surfactant were added to human whole blood, for the measurement of CD9 in the supernatant obtained after centrifugation. […]

[5] = system: CD9, the surface marker protein of extracellular vesicle (EV); assay: Study of surfactant type in combination with EGTA (CD9 in supernatant, Example 6); design: species or system human; settings: EGTA 200 mM, no surfactant (D-PBS(-))
Procedure: as §1, with “solution. […]” for “solution.”
20 μL of the sample for measurement and 50 μL of the anti-CD9 antibody solid-phased particle solution were dispensed into the reaction vessel and stirred. […] The resulting solution was stirred and then incubated at 37° C. for 4 minutes for the measurement of luminescence intensity using luminometer. A count value was obtained as the measured value. The luminescence intensity was measured using a fully automated chemiluminescent enzyme immunoassay system (Lumipulse L2400 (Fujirebio Inc.)). […]

[6] = surfactant final 0.5 W/V % in whole blood, visual check of supernatant

CCCCCCCCCC(=O)N(C)CC(=O)O.[Na] [N-DSS (NDS), N-decanoyl sarcosine sodium]
Hemolysis, Specimen 1 (human whole blood): Hemolysis
Hemolysis, Specimen 2 (human whole blood): Hemolysis

C[C@H](CCC(=O)NCCC[N+](C)(C)CCCS(=O)(=O)[O-])[C@H]1CC[C@H]2[C@@H]3[C@H](O)C[C@@H]4C[C@H](O)CC[C@]4(C)[C@H]3C[C@H](O)[C@]12C [CHAPS]
Hemolysis, Specimen 1 (human whole blood; [6]): Hemolysis
Hemolysis, Specimen 2 (human whole blood; [6]): Hemolysis

CCCCCCCCCCCC(=O)N(C)CC(=O)O.O.[Na] [NLS, N-lauroyl sarcosine sodium hydrate]
Hemolysis, Specimen 1 (human whole blood): Hemolysis
Hemolysis, Specimen 2 (human whole blood): Hemolysis

O=C(O)CN(CCOCCOCCN(CC(=O)O)CC(=O)O)CC(=O)O [EGTA, glycol ether diamine tetraacetic acid]
vs. non-addition (%) [1]: 215%
vs. no EGTA (%) ([2]; blood collection vessel: 200 mM EGTA, 0% Tergitol): 112.9%
vs. no EGTA (%) ([2]; blood collection vessel: nothing added): 71%
vs. non-addition (%) ([2]; blood collection vessel: 200 mM EGTA, 0% Tergitol, particle solution: 100 mM EGTA + 0.5% Tergitol): 843.5%
vs. non-addition (%) ([2]; blood collection vessel: 200 mM EGTA, 0% Tergitol, particle solution: 0.5% Tergitol): 530.5%
vs. No chelating agent and surfactant added (%) [3]: 332.6%
CD9 vs. 0 mM EGTA (%) ([4]; EGTA 10 mM): 154%
CD9 vs. 0% Tergitol (%) ([4]; EGTA 50 mM): 294%
CD9 vs. 0 mM EGTA (%) ([4]; EGTA 50 mM): 294%
CD9 vs. 0 mM EGTA (%) ([4]; EGTA 100 mM): 532%
CD9 vs. 0 mM EGTA (%) ([4]; EGTA 200 mM): 721%
vs. non-addition [5]: 366.4

CCCCCCCCCCCCCCCC[N+](C)(C)C.[Cl-] [C16TAC, hexadecyltrimethylammonium chloride]
Hemolysis, Specimen 1 (human whole blood; [6]): Hemolysis
Hemolysis, Specimen 2 (human whole blood; [6]): Hemolysis

O=C(O)CN(CC(=O)O)CC(=O)O [NTA, nitrilotriacetic acid]
vs. non-addition (%) [1]: 427.7%

O=C(O)CN(CCO)CCN(CC(=O)O)CC(=O)O [HEDTA, hydroxyethyl ethylenediaminetriacetic acid]
vs. non-addition (%) [1]: 963.9%

O=C(O)CN(CCN(CC(=O)O)CC(=O)O)CC(=O)O.[Na].[Na] [EDTA2Na, disodium ethylenediaminetetraacetic acid]
vs. non-addition (%) [1]: 376.6%
vs. No chelating agent and surfactant added (%) [3]: 196.6%

CCCCCCCCCCCC[N+](C)(C)CCCS(=O)(=O)[O-] [C12APS, N-dodecyl-N,N-dimethyl-3-ammonio-l-propanesulfonate]
Hemolysis, Specimen 1 (human whole blood; [6]): Hemolysis
Hemolysis, Specimen 2 (human whole blood; [6]): Hemolysis
